Source: patent publication US20090054376A1, “BENZOFURAN DERIVATIVES WITH THERAPEUTIC ACTIVITIES” (Pharmos Corporation, priority 2005, published 2009)

Tests used:
Human CB1 Receptor = target: T1, Human CB1 Receptor (Homo sapiens, UniProt P21554); assay: [35S]GTPγS-binding assay, hCB1; assay type: biochemical; settings: NB = no binding
T1 construct: expressed in transfected cells; host or cells: HEK-293 cells (membranes)

[1] = test system: visceral pain writhing responses; assay: Tolerance: repeated administration in the model of Visceral Pain; assay type: in vivo, mice; settings: tested day 11 at 2 mg/kg i.v.
Method: Male ICR mice (average body weight 25 g, Harlan, Israel) were pretreated by i.v. injection at volume dose of 5 ml/kg of vehicle, control and test compounds at various doses. Other routes of administration were tested for selected compounds including i.m. or s.c. injections at volume dose of 2.5 ml/kg and p.o. gavage at volume dose of 5 ml/kg. Compounds were dissolved in CREMOPHOR®:Ethanol and diluted 1:20 in saline prior to injection or gavage. Compounds administered i.v. were injected fifteen minutes before pain induction, whereas compounds administered i.m., s.c. or p.o. were supplied thirty minutes before pain induction, unless otherwise indicated. Each treatment group, except for controls comprising at least 30 animals, was composed of at least 6 animals. Fifteen or thirty minutes after drug administration, depending on the route of administration, the mice were injected i.p. with 10 ml/kg of 0.6% acetic acid and the number of visceral pain related behaviors (writhing movements globally defined as WR, i.e. stretching, contractions of the abdomen accompanied by an elongation of the body and extension of the hind limbs) was counted over a period of 5 minutes, starting 5 minutes after the acetic acid administration. These visceral pain related behaviors were globally defined as writhing responses (WR). The results are expressed as mean number of writhing responses ±SEM. Data were analyzed using analysis of variance (ANOVA) followed by post-hoc Fisher test.
Briefly compounds of the invention were administered at 10 mg/kg i.p. daily for 10 days and their analgesic activity was tested on day 11 as described in Example 17 (namely at 2 mg/kg i.v.). […] Each treatment group comprised 10 animals.

T1 sequence (P21554 whole entry): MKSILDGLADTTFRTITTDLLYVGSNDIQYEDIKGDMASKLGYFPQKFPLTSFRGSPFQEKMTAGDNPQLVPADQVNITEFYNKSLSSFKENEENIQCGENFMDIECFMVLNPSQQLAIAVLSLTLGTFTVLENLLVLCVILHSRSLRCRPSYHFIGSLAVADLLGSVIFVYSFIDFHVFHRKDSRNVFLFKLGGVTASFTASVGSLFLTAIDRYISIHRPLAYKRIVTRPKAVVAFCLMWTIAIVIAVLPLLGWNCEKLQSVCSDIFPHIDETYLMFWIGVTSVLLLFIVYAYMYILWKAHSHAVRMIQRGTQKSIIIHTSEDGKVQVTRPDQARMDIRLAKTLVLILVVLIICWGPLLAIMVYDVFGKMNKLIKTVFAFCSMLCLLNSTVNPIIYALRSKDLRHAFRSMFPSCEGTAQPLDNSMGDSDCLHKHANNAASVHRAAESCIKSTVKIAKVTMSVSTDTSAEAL

SMILES: CCCCCCC(C)(C)c1cc(O)c2c(c1)OC1C(O)CCCCC21 (stereo not drawn) [Compound C7S-2, 2-(1,1-dimethylheptyl)-5,6,7,8,9,9a-hexahydro-4bH-10-oxa-benzo[α]azulen-4,9-diol]
- EC50 (Human CB1 Receptor): 359 nM
- Emax (Human CB1 Receptor; upper plateau of curve): 50%
- writhing responses on day 11 ([1]; repeated administration daily for 10 days (10 mg/kg i.p.), vehicle 29.75±1.09): 2.45±1.49
- reduction in pain response after repeated administration ([1]; repeated administration daily for 10 days): 92%
